Assay results taken from patent US20080234188A1, “Antimicrobial Peptides” (The Hospital for Sick Children, priority 2001, published 2008).
Converted amounts (≈) assume the structure as drawn. Where a SMILES comes first, the peptide text is derived from it. [ ]: non-standard residue; d: D form.

Key:
[1] = test system: E. coli ATCC25922; assay type: cell-based
Excerpt: (§1) The bacterial strains used were E. coli C498, E. coli C500, Escherichia coli UB1005 and its antibiotic supersusceptible derivative DC2 (22); a clinical isolate of Staphylococcus epidermidis (C621); coryneform bacterial strain Corynebacterium xerosis (C875); and E. coli ATCC 25922, Staphylococcus aureus ATCC 25923, Enterococcus faecalis ATCC 29212, Bacillus subtilis ATCC 6633 and Pseudomonas aeruginosa ATCC 27853, all from American Type Culture Collection.
(§2) Peptide antibacterial activity was assessed by the method of R. Hancock et al. (Wu & Hancock (1999), J. Biol. Chem., v. 274, pp. 29-35). Test strains of bacteria from Mueller Hinton agar (MHA) plates were inoculated into 5 ml Mueller Hinton Broth (MHB) in tubes and grown overnight at 37° C. on a shaker (180 rpm). Serial dilutions of test peptides (at 10 times the required test concentrations) were made in 0.01% acetic acid, 0.2% BSA, in polypropylene or coated glass tubes as follows: the test peptide was (a) dissolved in distilled water at 20 times the required maximum concentration (enough final volume for all tests to be performed on a given day); (b) diluted into an equal volume of 0.02% acetic acid, 0.4% BSA to give 10 times the required maximum concentration; (c) serial doubling dilutions were performed in 0.01% acetic acid, 0.2% BSA to provide serial dilutions of peptides at 10 times the required test concentrations, e.g., 640, 320, 160, . . . 2.5 μg/ml. (No deleterious effects of long-term storage of peptides in these media have been detected). Overnight bacterial cultures were diluted in MHB to give 2−7×10^5 colony forming units/ml. Bacterial suspension (100 μl) was dispensed in each well; controls without bacteria were maintained in parallel. To each well was added 11 μl of 10× test peptide and plates were incubated at 37° C. for 18-24 hours, and checked again at 40-48 hours. Plates were read visually and at 600 nm in a microplate reader (Molecular Devices).
(§3) A further number of the peptides of the invention were tested for antimicrobial activity against a range of Gram-positive and Gram-negative bacteria by the assay described immediately before Example 1.

[2] = test system: P. aeruginosa ATCC27853; assay type: cell-based, Pseudomonas aeruginosa
Excerpt: as §1, §2, §3

[3] = test system: B. subtilis ATCC6633; assay type: cell-based, Bacillus subtilis
Excerpt: as §1, §2, §3

[4] = test system: E. faecalis ATCC29212; assay type: cell-based, Enterococcus faecalis
Excerpt: as §1, §2, §3

[5] = test system: E. coli UB1005; assay type: cell-based, Escherichia coli; conditions: UB1005
Method in brief: (§4)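 Broth microdilution in Mueller Hinton broth, 2−7×10^5 CFU/ml, peptides serially doubled in 0.01% acetic acid/0.2% BSA. Incubation 37° C for 18-24 h, rechecked at 40-48 h; MIC read visually and at 600 nm.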

[6] = test system: Human RBC; assay type: cell-based
Protocol: (§5) Erythrocytes from heparinized rabbit or human blood were washed three times with phosphate-buffered saline (PBS; 5 mM phosphate buffer, 0.14 M saline, pH 7.3), and centrifuged at 1000×g for 15 min at 4° C. The erythrocytes were diluted with PBS to 4% (v/v). Dilutions of the peptides in PBS were plated in 100 μl volumes in microtitre plates (Costar 3790, polypropylene) together with 100μl of the erythrocyte suspension. PBS was used as control and 100% lysis was determined in 0.1% Triton X-100. The plates were incubated at 37° C. for 1 h and then centrifuged at 1000×g for 5 min. 100 μl aliquots of the supernatant were transferred to microtitre plates (Nunc, polystyrene), and the release of hemoglobin was monitored by measurement of the absorbance at 540 nm in a microplate reader. The results are shown in Table 6, for peptide concentrations of […]. With only one or two exceptions, little or no hemolysis was seen.

[7] = test system: Rabbit RBC; assay type: cell-based
Protocol: as §5

[8] = test system: Staphylococcus epidermidis (C621); assay type: cell-based; conditions: C621
Method in brief: (§6)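 Broth microdilution in Mueller Hinton Broth, inoculum 2−7×10^5 CFU/ml. Peptides serially doubled in 0.01% acetic acid, 0.2% BSA and added at 10× final concentration. Incubation 37° C for 18-24 h, rechecked at 40-48 h; growth read visually and at 600 nm.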

[9] = test system: S. aureus ATCC25923; assay type: cell-based, Staphylococcus aureus
Excerpt: as §1, §2, §3

[10] = test system: Corynebacterium xerosis (C875); assay type: cell-based
Method in brief: as §6

[11] = test system: E. coli DC2; test: Assay of antibacterial activity (MIC), E. coli DC2; assay type: cell-based, Escherichia coli; conditions: Table 5A
Method in brief: as §4

## C[C@@H](NC(=O)[C@@H](C)NC(=O)[C@@H](Cc1ccccc1)NC(=O)[C@@H](C)NC(=O)[C@@H](C)NC(=O)[C@@H](Cc1c[nH]c2ccccc12)NC(=O)[C@@H](C)NC(=O)[C@@H](C)NC(=O)[C@@H](Cc1ccccc1)NC(=O)[C@@H](C)NC(=O)[C@@H](C)NC(=O)[C@@H](CCCCN)NC(=O)[C@@H](CCCCN)NC(=O)[C@@H](CCCCN)NC(=O)[C@@H](CCCCN)NC(=O)[C@@H](CCCCN)NC(=O)[C@H](N)CCCCN)C(N)=O [A11-D F17-6K, kkkkkkaafaawaafaa-NH2] (H-[dK][dK][dK][dK][dK][dK][dA][dA][dF][dA][dA][dW][dA][dA][dF][dA][dA]-NH2)
[1]
  MIC E. coli ATCC25922: 2 µM (≈ 3.67 µg/mL)
[2]
  MIC P. aeruginosa ATCC27853: 8 µM (≈ 14.7 µg/mL)
[3]
  MIC B. subtilis ATCC6633: 4 µM (≈ 7.34 µg/mL)
[4]
  MIC E. faecalis ATCC29212: >32 µM
[5]
  MIC E. coli UB1005: 0.5 µM (≈ 0.918 µg/mL)
[6]
  Human RBC (% lysis) 50 μM: 0 % lysis
  Human RBC (% lysis) 200 μM: 0 % lysis
[7]
  Rabbit RBC (% lysis) 50 μM: 0 % lysis
  Rabbit RBC (% lysis) 200 μM: 2 % lysis
[8]
  MIC S. epidermidis C621: 4 µM (≈ 7.34 µg/mL)
[9]
  MIC S. aureus ATCC25923: 32 µM (≈ 58.7 µg/mL)

## C[C@H](NC(=O)[C@H](C)NC(=O)[C@H](C)NC(=O)[C@H](Cc1c[nH]c2ccccc12)NC(=O)[C@H](Cc1ccccc1)NC(=O)[C@H](C)NC(=O)[C@H](C)NC(=O)[C@H](C)NC(=O)[C@H](C)NC(=O)[C@H](CCCCN)NC(=O)[C@H](CCCCN)NC(=O)[C@H](CCCCN)NC(=O)[C@H](CCCCN)NC(=O)[C@H](CCCCN)NC(=O)[C@@H](N)CCCCN)C(=O)N[C@@H](C)C(=O)N[C@@H](Cc1ccccc1)C(N)=O [KAFW, KKKKKKAAAAFWAAAAF-NH2] (H-KKKKKKAAAAFWAAAAF-NH2; N-terminus assumed)
[1]
  MIC E. coli ATCC25922: 16 µM (≈ 29.4 µg/mL)
[2]
  MIC P. aeruginosa ATCC27853: 16 µM (≈ 29.4 µg/mL)
[5]
  MIC E. coli UB1005: 2 µM (≈ 3.67 µg/mL)
[6]
  Human RBC (% lysis) 50 μM: 0 % lysis
  Human RBC (% lysis) 200 μM: 0 % lysis
[7]
  Rabbit RBC (% lysis) 50 μM: 0 % lysis
  Rabbit RBC (% lysis) 200 μM: 1 % lysis
[10]
  MIC C. xerosis C875: 0.5 µM (≈ 0.918 µg/mL)
[8]
  MIC S. epidermidis C621: 8 µM (≈ 14.7 µg/mL)
[11]
  MIC E. coli DC2: 0.5 µM (≈ 0.918 µg/mL)

## C[C@H](NC(=O)[C@H](C)NC(=O)[C@H](Cc1ccccc1)NC(=O)[C@H](C)NC(=O)[C@H](C)NC(=O)[C@H](Cc1ccccc1)NC(=O)[C@H](C)NC(=O)[C@H](C)NC(=O)[C@H](Cc1ccccc1)NC(=O)[C@H](C)NC(=O)[C@H](C)NC(=O)[C@H](CCCCN)NC(=O)[C@H](CCCCN)NC(=O)[C@H](CCCCN)NC(=O)[C@H](CCCCN)NC(=O)[C@H](CCCCN)NC(=O)[C@@H](N)CCCCN)C(N)=O [Peptide 3F17-6K, KKKKKKAAFAAFAAFAA-NH2] (H-KKKKKKAAFAAFAAFAA-NH2; N-terminus assumed)
[1]
  MIC E. coli ATCC25922: 16 µM (≈ 28.7 µg/mL)
[2]
  MIC P. aeruginosa ATCC27853: 16 µM (≈ 28.7 µg/mL)
[3]
  MIC B. subtilis ATCC6633: 16 µM (≈ 28.7 µg/mL)
[4]
  MIC E. faecalis ATCC29212: >32 µM
[5]
  MIC E. coli UB1005: 2 µM (≈ 3.59 µg/mL)
[6]
  Human RBC (% lysis) 50 μM: 0 % lysis
  Human RBC (% lysis) 200 μM: 0 % lysis
[7]
  Rabbit RBC (% lysis) 50 μM: 0 % lysis
  Rabbit RBC (% lysis) 200 μM: 2 % lysis
[8]
  MIC S. epidermidis C621: 8 µM (≈ 14.4 µg/mL)
[9]
  MIC S. aureus ATCC25923: >32 µM

## C[C@H](NC(=O)[C@H](C)NC(=O)[C@H](Cc1ccccc1)NC(=O)[C@H](C)NC(=O)[C@H](C)NC(=O)[C@H](Cc1c[nH]c2ccccc12)NC(=O)[C@H](C)NC(=O)[C@H](C)NC(=O)[C@H](Cc1ccccc1)NC(=O)[C@H](C)NC(=O)[C@H](C)NC(=O)[C@H](CCCNC(=N)N)NC(=O)[C@H](CCCNC(=N)N)NC(=O)[C@H](CCCNC(=N)N)NC(=O)[C@H](CCCNC(=N)N)NC(=O)[C@H](CCCNC(=N)N)NC(=O)[C@@H](N)CCCNC(=N)N)C(N)=O [Peptide F17-6R, RRRRRRAAFAAWAAFAA-NH2] (H-RRRRRRAAFAAWAAFAA-NH2; N-terminus assumed)
[1]
  MIC E. coli ATCC25922: 4 µM (≈ 8.01 µg/mL)
[2]
  MIC P. aeruginosa ATCC27853: 8 µM (≈ 16 µg/mL)
[5]
  MIC E. coli UB1005: 1 µM (≈ 2 µg/mL)
[6]
  Human RBC (% lysis) 50 μM: 14 % lysis
  Human RBC (% lysis) 200 μM: 26 % lysis
[7]
  Rabbit RBC (% lysis) 50 μM: 1 % lysis
  Rabbit RBC (% lysis) 200 μM: 3 % lysis
[10]
  MIC C. xerosis C875: 0.5 µM (≈ 1 µg/mL)
[8]
  MIC S. epidermidis C621: 4 µM (≈ 8.01 µg/mL)
[11]
  MIC E. coli DC2: 0.5 µM (≈ 1 µg/mL)

## C[C@H](NC(=O)[C@H](C)NC(=O)[C@H](C)NC(=O)[C@H](Cc1ccccc1)NC(=O)[C@H](C)NC(=O)[C@H](C)NC(=O)[C@H](Cc1c[nH]c2ccccc12)NC(=O)[C@H](C)NC(=O)[C@H](C)NC(=O)[C@H](Cc1ccccc1)NC(=O)[C@H](C)NC(=O)[C@H](C)NC(=O)[C@H](C)NC(=O)[C@H](C)NC(=O)[C@H](C)NC(=O)[C@H](Cc1ccccc1)NC(=O)[C@H](C)NC(=O)[C@H](C)NC(=O)[C@H](C)NC(=O)[C@H](CCCCN)NC(=O)[C@H](CCCCN)NC(=O)[C@H](CCCCN)NC(=O)[C@H](CCCCN)NC(=O)[C@H](CCCCN)NC(=O)[C@@H](N)CCCCN)C(N)=O [Peptide F25-6K] (H-KKKKKKAAAFAAAAAFAAWAAFAAA-NH2; N-terminus assumed)
[1]
  MIC E. coli ATCC25922: 16 µM (≈ 39.7 µg/mL)
[2]
  MIC P. aeruginosa ATCC27853: 32 µM (≈ 79.4 µg/mL)
[5]
  MIC E. coli UB1005: 16 µM (≈ 39.7 µg/mL)
[6]
  Human RBC (% lysis) 50 μM: 11 % lysis
  Human RBC (% lysis) 200 μM: 17 % lysis
[10]
  MIC C. xerosis C875: 1 µM (≈ 2.48 µg/mL)
[8]
  MIC S. epidermidis C621: 4 µM (≈ 9.92 µg/mL)
[11]
  MIC E. coli DC2: 8 µM (≈ 19.8 µg/mL)

## C[C@H](NC(=O)[C@H](C)NC(=O)[C@H](Cc1c[nH]c2ccccc12)NC(=O)[C@H](C)NC(=O)[C@H](C)NC(=O)[C@H](Cc1c[nH]c2ccccc12)NC(=O)[C@H](C)NC(=O)[C@H](C)NC(=O)[C@H](Cc1c[nH]c2ccccc12)NC(=O)[C@H](C)NC(=O)[C@H](C)NC(=O)[C@H](CCCCN)NC(=O)[C@H](CCCCN)NC(=O)[C@H](CCCCN)NC(=O)[C@H](CCCCN)NC(=O)[C@H](CCCCN)NC(=O)[C@@H](N)CCCCN)C(N)=O [Peptide W17-6K, KKKKKKAAWAAWAAWAA-NH2] (H-KKKKKKAAWAAWAAWAA-NH2; N-terminus assumed)
[1]
  MIC E. coli ATCC25922: 8 µM (≈ 15.3 µg/mL)
[2]
  MIC P. aeruginosa ATCC27853: 8 µM (≈ 15.3 µg/mL)
[3]
  MIC B. subtilis ATCC6633: 4 µM (≈ 7.65 µg/mL)
[4]
  MIC E. faecalis ATCC29212: >32 µM
[5]
  MIC E. coli UB1005: 1 µM (≈ 1.91 µg/mL)
[6]
  Human RBC (% lysis) 50 μM: 0 % lysis
  Human RBC (% lysis) 200 μM: 0 % lysis
[7]
  Rabbit RBC (% lysis) 50 μM: 0 % lysis
  Rabbit RBC (% lysis) 200 μM: 2 % lysis
[8]
  MIC S. epidermidis C621: 8 µM (≈ 15.3 µg/mL)
[9]
  MIC S. aureus ATCC25923: 32 µM (≈ 61.2 µg/mL)
